pKd: −log10 of the molar value.
What was measured:
FLT3 N841I = molecular target: T1, FLT3 N841I (Homo sapiens, UniProt P36888, N841I); experiment: DiscoverX KINOMEscan competition binding assay, FLT3 N841I; settings: 11-point 3-fold dilution
T1 construct: purchased DiscoverX (KINOMEscan); host or cells: E. coli BL21-derived host (T7 phage) or HEK-293
T1 sequence (P36888 27-993 N841I): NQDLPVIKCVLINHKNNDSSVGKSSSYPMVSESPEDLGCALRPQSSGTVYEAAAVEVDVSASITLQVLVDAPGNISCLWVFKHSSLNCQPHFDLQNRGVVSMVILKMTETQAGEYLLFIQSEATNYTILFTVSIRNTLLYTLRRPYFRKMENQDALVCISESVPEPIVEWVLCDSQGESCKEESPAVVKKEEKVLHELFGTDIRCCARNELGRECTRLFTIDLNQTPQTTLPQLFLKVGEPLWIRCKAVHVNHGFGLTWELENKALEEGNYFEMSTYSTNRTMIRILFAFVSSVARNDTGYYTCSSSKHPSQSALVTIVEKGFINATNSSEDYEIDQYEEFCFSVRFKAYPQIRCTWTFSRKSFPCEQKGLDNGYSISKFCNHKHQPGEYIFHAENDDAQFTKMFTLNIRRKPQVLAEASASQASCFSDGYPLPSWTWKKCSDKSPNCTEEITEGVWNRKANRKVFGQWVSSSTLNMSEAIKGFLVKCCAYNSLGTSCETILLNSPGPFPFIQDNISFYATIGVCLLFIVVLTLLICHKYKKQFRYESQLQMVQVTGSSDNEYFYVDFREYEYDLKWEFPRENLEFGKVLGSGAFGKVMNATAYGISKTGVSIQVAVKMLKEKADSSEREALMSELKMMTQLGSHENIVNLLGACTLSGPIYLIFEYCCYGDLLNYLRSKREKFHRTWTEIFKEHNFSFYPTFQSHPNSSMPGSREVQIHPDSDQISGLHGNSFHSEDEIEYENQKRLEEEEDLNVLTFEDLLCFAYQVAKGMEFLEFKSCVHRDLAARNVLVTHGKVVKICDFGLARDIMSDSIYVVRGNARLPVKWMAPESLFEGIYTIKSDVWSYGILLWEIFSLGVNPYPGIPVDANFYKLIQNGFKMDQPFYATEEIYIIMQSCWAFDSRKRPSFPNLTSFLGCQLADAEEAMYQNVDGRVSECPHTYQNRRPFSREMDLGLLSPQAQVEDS
Description: (§1) […]. […] As a result, the data report thermodynamic interaction affinities (Kd values), rather than IC50 values that are dependent on ATP concentrations. The assay uses a DNA-tagged version of the protein kinase, and an immobilized ligand bound to a solid support. Compounds that directly or indirectly prevent kinase binding to the immobilized ligand reduce the amount of kinase captured on the solid support, which is detected using an ultra-sensitive qPCR method. Affinity constants reported from the assay have been reported to be independent of the immobilized ligand used that is coupled to the solid support (See supplemental information in Fabian, M. A. et. al., (2005) Nat. Biotechnol. 23, 329-336; Wodicka, L. M. et. al., (2010) Chem. Biol. 17, 1241-1249.)
(§2) Kinase-tagged T7 phage strains were prepared in an E. coli host derived from the BL21 strain. E. coli were grown to log-phase and infected with T7 phage and incubated with shaking at 32° C. until lysis. The lysates were centrifuged and filtered to remove cell debris. The remaining kinases were produced in HEK-293 cells and subsequently tagged with DNA for qPCR detection. Streptavidin-coated magnetic beads were treated with biotinylated small molecule ligands for 30 minutes at room temperature to generate affinity resins for kinase assays. The liganded beads were blocked with excess biotin and washed with blocking buffer (SeaBlock (Pierce), 1% BSA, 0.05% Tween 20, 1 mM DTT) to remove unbound ligand and to reduce non-specific binding. […] Test compounds were prepared as 111× stocks in 100% DMSO. Kds were determined using an 11-point 3-fold compound dilution series with three DMSO control points. All compounds for Kd measurements are distributed by acoustic transfer (non-contact dispensing) in 100% DMSO. The compounds were then diluted directly into the assays such that the final concentration of DMSO was 0.9%. All reactions were performed in polypropylene 384-well plates. Each was a final volume of 0.02 mL. […] The kinase concentration in the eluates was measured by qPCR.
(§3) Binding constants (Kds) were calculated with a standard dose-response curve using the Hill equation. The Hill Slope was set to −1. Curves were fitted using a non-linear least square fit with the Levenberg-Marquardt algorithm.

IRAK4 = molecular target: T2, IRAK4 (Homo sapiens, UniProt Q9NWZ3); experiment: DiscoverX KINOMEscan competition binding assay, IRAK4; set-up: purchased Reaction Biology (RBC HotSpot); settings: 11-point 3-fold dilution
T2 sequence (Q9NWZ3 1-460): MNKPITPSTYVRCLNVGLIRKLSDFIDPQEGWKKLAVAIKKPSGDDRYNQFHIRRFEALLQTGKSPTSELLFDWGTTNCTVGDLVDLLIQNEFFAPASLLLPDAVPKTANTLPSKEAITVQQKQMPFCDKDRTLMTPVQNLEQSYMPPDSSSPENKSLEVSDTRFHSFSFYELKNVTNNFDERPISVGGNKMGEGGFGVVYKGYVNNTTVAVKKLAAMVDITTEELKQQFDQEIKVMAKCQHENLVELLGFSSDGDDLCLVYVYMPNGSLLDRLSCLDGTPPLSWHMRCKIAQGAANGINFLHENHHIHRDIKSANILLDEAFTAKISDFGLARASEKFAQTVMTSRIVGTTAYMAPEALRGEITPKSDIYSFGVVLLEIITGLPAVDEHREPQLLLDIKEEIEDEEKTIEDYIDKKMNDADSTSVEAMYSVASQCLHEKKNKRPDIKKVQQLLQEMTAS
Description: as §1, §2, §3

| Structure (SMILES) | pKd (FLT3 N841I) | pKd (IRAK4) |
| --- | --- | --- |
| COc1cc2ncc(-c3nc(N[C@H]4CNCC[C@@H]4F)ncc3F)n2nc1C1CC1 [Compound 1a, 4-(6-cyclopropyl-7-methoxyimidazo[1,2-b]pyridazin-3-yl)-5-fluoro-N-((3S,4S)-4-fluoropiperidin-3-yl)pyrimidin-2-amine] | > 9.77 | > 9.77 |
| FC(F)COc1cc2ncc(-c3ccnc(N[C@H]4CNCC[C@@H]4F)n3)n2nc1C1CC1 [Compound 4a, 4-(6-cyclopropyl-7-(2,2-difluoroethoxy)imidazo[1,2-b]pyridazin-3-yl)-N-((3 S,4S)-4-fluoropiperidin-3-yl)pyrimidin-2-amine] | 9.06 | 9.23 |
| COc1cc2ncc(-c3nc(N[C@H]4CNCC[C@@H]4F)ncc3F)n2nc1C(C)(C)O [Compound 45a, 2-(3-(5-fluoro-2-(((3S,4S)-4-fluoropiperidin-3-yl)amino)pyrimidin-4-yl)-7-methoxyimidazo[1,2-b]pyridazin-6-yl)propan-2-ol] | 8.96 | 9.24 |
| CC(C)(O)c1ccc2ncc(-c3nc(N[C@H]4CNCC[C@@H]4F)ncc3F)n2c1 [Compound 46a, 2-(3-(5-fluoro-2-(((3S,4S)-4-fluoropiperidin-3-yl)amino)pyrimidin-4-yl)imidazo[1,2-a]pyridin-6-yl)propan-2-ol] | 8.49 | > 9.77 |
| COc1cc2ncc(-c3nc(N[C@H]4CNCC[C@@H]4F)ncc3F)n2nc1C1COC1 [Compound 92a, 5-fluoro-N-((3S,4S)-4-fluoropiperidin-3-yl)-4-(7-methoxy-6-(oxetan-3-yl)imidazo[1,2-b]pyridazin-3-yl)pyrimidin-2-amine] | 9.74 | > 9.77 |
| CC(C)(O)c1cn2c(-c3nc(N[C@H]4CNCC[C@@H]4F)ncc3F)cnc2cn1 [Compound 100a, 2-(3-(5-fluoro-2-(((3S,4S)-4-fluoropiperidin-3-yl)amino)pyrimidin-4-yl)imidazo[1,2-a]pyrazin-6-yl)propan-2-ol] | 7.80 | 8.82 |
| COc1cc2ncc(-c3nc(N[C@H]4CNCC[C@@H]4F)ncc3F)n2nc1N1CCCS1(=O)=O [Compound 112a, 2-(3-(5-fluoro-2-(((3S,4S)-4-fluoropiperidin-3-yl)amino)pyrimidin-4-yl)-7-methoxyimidazo[1,2-b]pyridazin-6-yl)isothiazolidine 1,1-dioxide] | 9.70 | 9.21 |

Source: patent US20260226048A1, “MULTI-CYCLIC IRAK AND FLT3 INHIBITING COMPOUNDS AND USES THEREOF” (CHILDREN'S HOSPITAL MEDICAL CENTER, priority 2023, published 2026)
